The record followed here is patent US4259235A, “Tricyclic nitrogenous compounds having string plant growth regulating properties” (BASF Aktiengesellschaft, priority 1977, dated 1981).

One data set relates to Sinapis alba. Kind of data set: Herbicidal action, pre- and postemergence application in the greenhouse. Type of data set: in vivo. The following applies: post-emergence, read-out: % damage. The protocol: (§1) Plastic flowerpots having a volume of 300 cm^3 were filled with a sandy loam and the test plants placed therein (either as seed, as vegetatively reproduced species, or as potted plants, e.g., vines). For preemergence treatment, the active ingredients were suspended or emulsified in water as vehicle and sprayed onto the surface of the soil immediately after sowing by means of finely distributing nozzles. The potted vines were treated by spraying them with the correspondingly diluted liquor. For postemergence treatment, the agents were, as stated above, sprayed in water onto the leaves of the test plants, some liquor also falling onto the soil. In some special cases, solid active ingredients were first dissolved in dimethylformamide and then applied in a total liquor amount of 400 liters of water per hectare. For the postemergence treatment, the plants were first grown to a height of from 3 to 10 cm before being treated. With grasses, the first growth was cut, and the new growth treated 2 to 3 days after cutting. The temperature requirements of the plants were taken into account by placing them in cooler or warmer sections of the greenhouse. The experiments were run for from 4 to 6 weeks, during which time the plants were tended and their reaction to the various treatments was assessed.
(§2) The application rates are given in kg/ha of active ingredient, regardless of the method of application and the amount of water used.
(§3) A 0 to 100 scale was used for the evaluation, 0 denoting normal emergence or no damage (or no inhibition), and 100 denoting non-emergence or complete destruction of the plants. A distinction should be made in the influence on growth between desired changes without any appreciable disadvantageous phytotoxic effects (e.g., purely growth-regulating effects) and those of a phytotoxic herbicical character.

The test system of the next data set is Poa pratensis. Kind of data set: Growth inhibition in lawns, preemergence treatment in the greenhouse. The data set is classed as in vivo. The protocol:
as §1, §2, §3

A further data set relates to spring barley. The experiment in a line: Growth height of spring barley, soil (preemergence) treatment, Example 9. Type of data set: in vivo, spring barley ("Union" variety). The following applies: 30 days. As to the method:
(§4) Spring wheat of the "Opal" variety and spring barley of the "Union" variety were grown in the winter half of the year under greenhouse conditions in plastic dishes 11.5 cm in diameter, in a peat substrate provided with sufficient nutrients.
(§5) The reductions in growth height caused by the treatment were determined by measuring the height of the plants at the end of the experiment after 30 days' growth, and comparing it with that of untreated plants.

For the next data set, the system named is potted vines. Kind of data set: Tolerance by potted vines in greenhouse; spray application. The data set is classed as in vivo. As to the method:
as §1, §2, §3

Another data set has as its system Ipom. spp. Kind of data set: Herbicidal action, pre- and postemergence application in the greenhouse. The data set is classed as in vivo, Ipomoea spp. The following applies: Ipomoea, post-emergence; 3.0 kg/ha POST; read-out: % damage. As to the method: as §1, §2, §3
The next data set concerns Mentha piper. Described as above. Type of data set: in vivo. The following applies: post-emergence; 3.0 kg/ha POST; read-out: % damage. As to the method:
as §1, §2, §3

The subject of the next data set is Lolium mult. Described as above. Particulars: Lolium, post-emergence, read-out: % damage. The data set is classed as in vivo. As to the method:
as §1, §2, §3

For another data set, the system named is Galium apar. The data set is described as above. Type of data set: in vivo, Galium aparine. Particulars: post-emergence, 3.0 kg/ha POST, read-out: % damage. The protocol:
as §1, §2, §3

The next data set deals with spring wheat. Kind of data set: Growth height of spring wheat, soil (preemergence) treatment, Example 9. The data set is classed as in vivo, spring wheat ("Opal" variety). Particulars: 30 days. As to the method:
as §4, §5

Where two headings read alike, the source gives them in different places.

As for `BrC1=CC2CC1C1N=NC21` (stereo not shown), the pest or weed control at 3000 g/ha in the data set on Sinapis alba (3.0 kg/ha POST) amounted to 100%.

The inhibition is the drop in the measured response relative to a control, in per cent. For the molecule `[O-][N+]1=NC2C3CC(C4C3N4c3ccc(Br)cc3)C21` (stereo not shown), the “Growth after emergence, remark” value with Poa pratensis (0.5 to 4.0 kg/ha) is on record as “very short growth overall; grass compact”. In the data set with Poa pratensis (Poa pratensis, pre-emergence, 0.5 kg/ha, read-out: % growth inhibition after emergence), the inhibition at 500 g/ha is 50%. For the same molecule, the inhibition at 1000 g/ha in the data set on Poa pratensis (Poa pratensis, pre-emergence, 1.0 kg/ha, read-out: % growth inhibition after emergence) came out at 60%. Besides, in the data set with Poa pratensis (Poa pratensis, pre-emergence, 2.0 kg/ha, read-out: % growth inhibition after emergence), the inhibition at 2000 g/ha turned out to be 60%. The inhibition at 4000 g/ha in the data set on Poa pratensis (Poa pratensis, pre-emergence, 4.0 kg/ha, read-out: % growth inhibition after emergence) was 70%.

Turning to `C1C2C3N=NC3C1C1OC21` (stereo not shown) [drawing 390], the Plant height was found to be 25.0 cm with spring barley (3 kg/ha) and 14.0 cm with spring barley (12 kg/ha). The entries for the “Plant height, % of untreated control” value with spring barley (3 kg/ha) and in the data set on spring barley (12 kg/ha) were 77.4% and 43.3%, respectively.

In the case of `N#Cc1c(Cl)cccc1Cl`, the “Potted vines - leaf damage” value with potted vines (4.0 and 8.0 kg/ha) is reported as “slight chlorosis”. For the same molecule, the entries for the “Change in shoot growth” value in the data set with potted vines (4.0 kg/ha) and in the data set on potted vines (8.0 kg/ha) were 15.3 cm and 15.7 cm, respectively.

In the case of `Cc1ccc(NC2C(Cl)C3CC2C2N=NC32)cc1` (stereo not shown), the pest or weed control at 3000 g/ha amounted to 100% in the data set on Ipom. spp.; 100% in the data set on Mentha piper.; 100% with Lolium mult. (3.0 kg/ha POST); 80% with Lolium mult. (3.0 kg/ha PRE); 100% in the data set with Sinapis alba (3.0 kg/ha PRE); 75% in the data set with Galium apar..

Turning to `C1C2C3N=NC3C1C1OC21` (stereo not shown) [drawing 388], in the data set on spring wheat (3 kg/ha), the Plant height turned out to be 21.5 cm and the “Plant height, % of untreated control” value was 71.7%. In the data set with spring wheat (12 kg/ha), the Plant height is 12.5 cm and the “Plant height, % of untreated control” value was determined as 41.7%.

For `c1ccc(C2=NOC3C4CC(C5N=NC45)C23)cc1` (stereo not shown) [drawing 389], the Plant height is 20.0 cm in the data set with spring wheat (3 kg/ha) and 14.0 cm in the data set with spring wheat (12 kg/ha). Besides, the “Plant height, % of untreated control” value turned out to be 66.7% in the data set on spring wheat (3 kg/ha) and 46.7% in the data set on spring wheat (12 kg/ha).

Turning to `ClC1C2CC(C3N=NC23)C1Nc1nccs1` (stereo not shown), the pest or weed control at 3000 g/ha was 80% in the data set with Ipom. spp., 100% in the data set on Mentha piper., 100% with Lolium mult. (3.0 kg/ha POST) and 80% in the data set on Galium apar..
